Reference: PMC4990076 (MedChemComm, 2016)

Target: human Icmt (hIcmt) (Homo sapiens, UniProt O60725)
Experiment: in vitro vapor diffusion assay for hIcmt activity
Assay type: biochemical
Conditions: not given

Sequence of human Icmt (hIcmt) (O60725 whole entry, the tested form may be a part): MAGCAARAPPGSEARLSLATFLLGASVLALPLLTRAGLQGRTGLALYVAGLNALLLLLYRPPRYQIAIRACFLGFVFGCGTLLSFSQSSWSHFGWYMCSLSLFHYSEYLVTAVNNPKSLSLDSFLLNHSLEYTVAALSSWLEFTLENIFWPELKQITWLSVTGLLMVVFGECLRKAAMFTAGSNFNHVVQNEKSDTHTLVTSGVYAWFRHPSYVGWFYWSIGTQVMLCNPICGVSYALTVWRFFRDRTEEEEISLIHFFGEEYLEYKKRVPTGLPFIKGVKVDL

Row | SMILES | hIcmt inhibitory activity (in words)
1 | OC(c1ccccc1)(c1cccs1)C1CCOCC1 (centres unmarked) [Compound 9] | inactive
2 | c1ccc(C(=C2CCOCC2)c2cccs2)cc1 [Compound 10] | inactive
3 | c1csc(C(c2ccc3ccccc3c2)C2CCNCC2)c1 (centres unmarked) [Compound 11] | not active
4 | CN1CCC(C(c2ccc3ccccc3c2)c2cccs2)CC1 (centres unmarked) [Compound 12] | not active

The remaining lines, values ahead:

Row | hIcmt inhibitory activity (in words) | SMILES
5 | inactive | c1ccc(C(=C2CCOCC2)c2ccc3ccccc3c2)cc1 [Compound 6]
6 | abolished activity | c1ccc2cc(CC3CCOCC3)ccc2c1 [Compound 7]
7 | abolished activity | O=C(c1ccc2ccccc2c1)C1CCOCC1 [Compound 8]

System: Ras localization
Experiment: not given
Conditions: at micromolar concentrations; cited from earlier work

Row | SMILES | Ras mislocalization in cells
8 | CCCCCCCCn1cc(CC(N)=O)c2cc(-c3cccc(C)c3)ccc21 [Cysmethynil] | causes Ras mislocalization
